Data reported in publication PMC7611149 (ACS chemical biology, 2018).

Experiments:
[1] = target: CpOGA (Clostridium perfringens, UniProt Q0TR53); assay: biochemical; type: binding
[2] = target: T1, human OGA (hOGA) (Homo sapiens, UniProt O60502); assay: Fluorescence polarization displacement of GlcNAcstatin BF from hOGA; type: binding; settings: FP displacement, 50 nM GlcNAcstatin BF, 250 nM hOGA, TBS pH 7.5
T1 sequence (O60502 60-336 limits assumed): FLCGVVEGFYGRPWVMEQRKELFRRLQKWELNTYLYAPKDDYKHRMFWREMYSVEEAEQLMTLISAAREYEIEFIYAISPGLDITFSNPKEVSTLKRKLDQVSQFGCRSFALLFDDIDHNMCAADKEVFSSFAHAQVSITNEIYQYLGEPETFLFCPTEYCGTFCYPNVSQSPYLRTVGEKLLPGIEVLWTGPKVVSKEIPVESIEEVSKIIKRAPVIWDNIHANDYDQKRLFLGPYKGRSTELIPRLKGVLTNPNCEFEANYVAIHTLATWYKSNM

Chain of CpOGA (Q0TR53 31-1001 limits assumed): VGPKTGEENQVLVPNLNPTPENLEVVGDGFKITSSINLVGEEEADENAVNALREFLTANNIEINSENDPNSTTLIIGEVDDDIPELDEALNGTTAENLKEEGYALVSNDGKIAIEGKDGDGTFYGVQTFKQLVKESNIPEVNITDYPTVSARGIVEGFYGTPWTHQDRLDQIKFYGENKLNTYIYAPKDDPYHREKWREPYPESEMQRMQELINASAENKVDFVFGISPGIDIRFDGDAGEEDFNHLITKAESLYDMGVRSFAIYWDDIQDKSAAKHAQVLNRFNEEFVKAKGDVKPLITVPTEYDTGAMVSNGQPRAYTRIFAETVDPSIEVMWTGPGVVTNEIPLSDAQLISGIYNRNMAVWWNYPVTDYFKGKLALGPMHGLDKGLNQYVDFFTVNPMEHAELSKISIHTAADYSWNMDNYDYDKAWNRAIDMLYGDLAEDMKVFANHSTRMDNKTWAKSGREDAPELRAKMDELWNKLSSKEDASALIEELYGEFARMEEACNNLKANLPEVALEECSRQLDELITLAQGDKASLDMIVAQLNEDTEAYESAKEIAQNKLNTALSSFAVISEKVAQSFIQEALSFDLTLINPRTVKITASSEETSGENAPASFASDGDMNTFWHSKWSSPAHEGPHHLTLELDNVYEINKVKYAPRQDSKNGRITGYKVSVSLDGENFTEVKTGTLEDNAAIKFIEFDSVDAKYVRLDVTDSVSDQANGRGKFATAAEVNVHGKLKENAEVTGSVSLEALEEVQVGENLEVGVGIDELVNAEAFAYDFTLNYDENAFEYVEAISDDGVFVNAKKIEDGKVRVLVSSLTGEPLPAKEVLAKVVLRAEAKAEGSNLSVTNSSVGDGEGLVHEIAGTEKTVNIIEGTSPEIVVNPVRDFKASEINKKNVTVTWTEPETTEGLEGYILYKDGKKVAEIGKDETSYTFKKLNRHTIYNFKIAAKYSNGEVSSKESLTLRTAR

Compound | Ki [1] [µM] | Ki [2] [µM]
FC(F)(F)C1=NCCNC=C1 [5TFD, 5-(trifluoromethyl)-2,3-dihydro-1H-1,4-diazepine] | 146 | 
CC(=O)N[C@H]1c2nc(CCc3ccccc3)cn2[C@H](CO)[C@@H](O)[C@@H]1O [GlcNAcstatin B] |  | 0.0232
